In patent EP2561858B1, “A composition for activating hair follicle stem cells to stimulate hair growth” (LABO Cosprophar AG, priority 2011, dated 2013):

Columns and labels:
[1] = biological target: T1, 5-alpha reductase activity II (Homo sapiens, UniProt P31213); assay: 5-alpha reductase inhibition in skin fibroblasts (marked Testosterone to DHT, TLC), type II; type: cell-based; conditions: 100µM, 1 hour at 37°C preincubation, 3 hr with marked Testosterone
T1 construct: skin fibroblasts, cells that contain different types of enzymes involved in the biosynthesis of steroids, were used; endogenous in cells; host or cells: skin fibroblasts
T1 sequence (P31213 1-254): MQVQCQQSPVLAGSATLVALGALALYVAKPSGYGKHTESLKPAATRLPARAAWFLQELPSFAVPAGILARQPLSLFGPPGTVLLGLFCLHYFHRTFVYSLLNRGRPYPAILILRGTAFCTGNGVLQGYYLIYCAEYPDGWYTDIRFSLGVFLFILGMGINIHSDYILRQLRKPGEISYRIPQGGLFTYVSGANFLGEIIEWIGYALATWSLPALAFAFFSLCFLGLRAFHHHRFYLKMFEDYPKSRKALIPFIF
Experimental: (§1) In the experiment, skin fibroblasts, cells that contain different types of enzymes involved in the biosynthesis of steroids, were used. These cells represent a good system for the evaluation of the kinetic parameters of enzyme inhibitors such as 5-alpha reductase, delegated to steroid metabolism.
(§2) Fibroblasts were or were not incubated with 100µM of active Biochanin-A for 1 hour at 37°C before the addition of a known quantity of marked Testosterone, at the concentration of 1.5 micromoles. After 3 hr we proceeded with the extraction of the radioactive steroids. The amount of marked Testosterone and DHT are determined by TLC (Thin Layer Chromatography) to quantify 5-alpha reductase activity.

[2] = biological target: T2, 5-alpha reductase activity I (Homo sapiens, UniProt P18405); assay: 5-alpha reductase inhibition in skin fibroblasts (marked Testosterone to DHT, TLC), type I; type: cell-based; conditions: 100µM, 1 hour at 37°C preincubation, 3 hr with marked Testosterone
T2 construct: skin fibroblasts, cells that contain different types of enzymes involved in the biosynthesis of steroids, were used; endogenous in cells; host or cells: skin fibroblasts
T2 sequence (P18405 1-259): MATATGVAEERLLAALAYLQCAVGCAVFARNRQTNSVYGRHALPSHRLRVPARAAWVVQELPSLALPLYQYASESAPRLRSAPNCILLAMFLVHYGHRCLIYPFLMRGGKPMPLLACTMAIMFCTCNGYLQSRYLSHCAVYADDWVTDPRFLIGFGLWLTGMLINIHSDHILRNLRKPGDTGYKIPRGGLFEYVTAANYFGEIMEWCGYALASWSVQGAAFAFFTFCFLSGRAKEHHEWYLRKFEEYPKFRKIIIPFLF
Experimental: as §1, §2

COc1ccc(-c2coc3cc(O)cc(O)c3c2=O)cc1 [Biochanin-A]
5-alpha reductase activity II compared to the negative control [1]: -93% | 5-alpha reductase activity I compared to the negative control [2]: -64%
